Assay results published in ChEMBL document CHEMBL1148370, “Studies toward the discovery of the next generation of antidepressants. 3. Dual 5-HT1A and serotonin transporter affinity within a class of N-aryloxyethylindolylalkylamines” (J Med Chem, 2004).
pIC50, pKi: −log10 of the molar value.

Tests used:
[1] = biological target: Sodium-dependent serotonin transporter (Rattus norvegicus, UniProt P31652)
[2] = biological target: T1, Adrenergic receptor alpha-1 (Rattus norvegicus, UniProt P15823+P23944+P43140)
T1 sequence (P15823 whole entry): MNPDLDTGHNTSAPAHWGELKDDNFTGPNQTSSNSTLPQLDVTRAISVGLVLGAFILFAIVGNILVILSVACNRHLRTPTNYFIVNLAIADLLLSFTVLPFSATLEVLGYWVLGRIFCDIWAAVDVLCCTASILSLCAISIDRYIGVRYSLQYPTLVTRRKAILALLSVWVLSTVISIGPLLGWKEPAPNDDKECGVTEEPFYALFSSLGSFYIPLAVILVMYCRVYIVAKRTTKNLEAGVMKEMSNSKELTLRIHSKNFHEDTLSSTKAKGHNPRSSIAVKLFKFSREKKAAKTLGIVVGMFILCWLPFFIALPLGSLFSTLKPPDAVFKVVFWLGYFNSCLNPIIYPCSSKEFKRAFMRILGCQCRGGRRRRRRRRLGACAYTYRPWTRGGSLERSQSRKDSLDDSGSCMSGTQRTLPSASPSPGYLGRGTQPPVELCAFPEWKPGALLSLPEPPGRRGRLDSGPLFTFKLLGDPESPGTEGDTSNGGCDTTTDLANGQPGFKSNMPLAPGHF
T1 sequence (P23944 whole entry): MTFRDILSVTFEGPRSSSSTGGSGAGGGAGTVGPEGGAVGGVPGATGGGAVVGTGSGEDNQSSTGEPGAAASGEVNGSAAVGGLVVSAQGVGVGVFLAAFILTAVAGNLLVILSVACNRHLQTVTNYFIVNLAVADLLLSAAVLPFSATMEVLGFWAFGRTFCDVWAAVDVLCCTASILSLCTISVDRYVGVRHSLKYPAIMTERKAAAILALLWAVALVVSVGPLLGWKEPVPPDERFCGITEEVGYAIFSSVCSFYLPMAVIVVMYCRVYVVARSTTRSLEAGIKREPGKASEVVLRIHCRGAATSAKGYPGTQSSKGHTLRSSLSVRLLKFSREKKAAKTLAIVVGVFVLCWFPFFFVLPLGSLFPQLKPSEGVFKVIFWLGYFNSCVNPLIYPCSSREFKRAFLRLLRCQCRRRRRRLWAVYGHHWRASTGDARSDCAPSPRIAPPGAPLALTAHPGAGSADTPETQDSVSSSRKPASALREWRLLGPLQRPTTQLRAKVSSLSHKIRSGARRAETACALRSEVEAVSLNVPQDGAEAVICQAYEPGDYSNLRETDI
T1 sequence (P43140 whole entry): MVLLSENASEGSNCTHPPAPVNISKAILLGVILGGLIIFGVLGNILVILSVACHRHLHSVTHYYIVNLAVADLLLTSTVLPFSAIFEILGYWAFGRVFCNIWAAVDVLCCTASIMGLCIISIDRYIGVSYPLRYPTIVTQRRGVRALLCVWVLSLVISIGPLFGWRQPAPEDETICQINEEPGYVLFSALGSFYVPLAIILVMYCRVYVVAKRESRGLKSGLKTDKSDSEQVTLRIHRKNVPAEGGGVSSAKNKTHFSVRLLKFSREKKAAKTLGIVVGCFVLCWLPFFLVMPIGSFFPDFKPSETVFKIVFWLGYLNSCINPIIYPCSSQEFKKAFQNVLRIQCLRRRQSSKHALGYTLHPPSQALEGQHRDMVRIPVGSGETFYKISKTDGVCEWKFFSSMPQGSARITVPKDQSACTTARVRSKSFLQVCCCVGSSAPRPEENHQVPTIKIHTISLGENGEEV

[3] = biological target: Sodium-dependent serotonin transporter (Homo sapiens, UniProt P31645); assay type: cell-based, JAR
Sodium-dependent serotonin transporter (Homo sapiens, UniProt P31645), sequence (P31645 whole entry): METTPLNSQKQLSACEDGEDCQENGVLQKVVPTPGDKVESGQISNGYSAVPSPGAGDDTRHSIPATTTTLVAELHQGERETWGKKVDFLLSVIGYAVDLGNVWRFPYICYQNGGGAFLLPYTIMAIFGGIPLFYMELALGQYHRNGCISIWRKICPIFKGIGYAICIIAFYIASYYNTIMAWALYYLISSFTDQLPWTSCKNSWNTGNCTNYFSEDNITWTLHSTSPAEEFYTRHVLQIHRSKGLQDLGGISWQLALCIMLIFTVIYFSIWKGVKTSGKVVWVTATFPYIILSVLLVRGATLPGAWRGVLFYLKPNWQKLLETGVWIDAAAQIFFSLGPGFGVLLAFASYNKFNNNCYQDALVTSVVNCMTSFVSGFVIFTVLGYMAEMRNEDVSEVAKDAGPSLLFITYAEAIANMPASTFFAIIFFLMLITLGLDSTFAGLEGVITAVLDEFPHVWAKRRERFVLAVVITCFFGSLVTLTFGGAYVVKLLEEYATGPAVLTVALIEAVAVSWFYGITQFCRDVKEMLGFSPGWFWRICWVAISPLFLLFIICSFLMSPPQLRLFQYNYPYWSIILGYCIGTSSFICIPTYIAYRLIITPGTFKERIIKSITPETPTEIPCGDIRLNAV

[4] = biological target: Adrenergic receptor alpha-1 (Rattus norvegicus) (UniProt P15823+P23944+P43140); test: Percent inhibition against rat cortical alpha-1 adrenergic receptor labeled with [3H]prazosin radioligand was determined; assay type: protein assay; conditions: concentration not given here

Sodium-dependent serotonin transporter (Rattus norvegicus, UniProt P31652), sequence (P31652 whole entry): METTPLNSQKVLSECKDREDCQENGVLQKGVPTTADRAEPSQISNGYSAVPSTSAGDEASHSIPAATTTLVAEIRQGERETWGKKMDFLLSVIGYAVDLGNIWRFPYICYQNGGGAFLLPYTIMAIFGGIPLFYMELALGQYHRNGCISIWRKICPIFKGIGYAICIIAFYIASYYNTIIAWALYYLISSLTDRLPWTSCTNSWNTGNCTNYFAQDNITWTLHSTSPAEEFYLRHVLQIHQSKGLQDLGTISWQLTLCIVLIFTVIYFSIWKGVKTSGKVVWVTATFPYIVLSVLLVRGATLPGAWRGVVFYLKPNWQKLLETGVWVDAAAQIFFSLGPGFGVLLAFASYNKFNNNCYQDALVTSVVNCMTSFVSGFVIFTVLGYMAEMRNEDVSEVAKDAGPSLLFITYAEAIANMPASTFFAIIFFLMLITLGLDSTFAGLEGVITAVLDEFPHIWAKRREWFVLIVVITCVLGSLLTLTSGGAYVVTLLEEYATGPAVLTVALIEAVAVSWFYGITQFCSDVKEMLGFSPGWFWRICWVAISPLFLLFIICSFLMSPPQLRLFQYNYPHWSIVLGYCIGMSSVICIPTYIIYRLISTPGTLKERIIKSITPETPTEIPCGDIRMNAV

| pKi [1] | Ki [2] | pIC50 [3] | inhibition [4] | Structure (SMILES) |
| --- | --- | --- | --- | --- |
| 8.66 | 34.3 nM | – | – | Fc1cc(OCCNCCCc2c[nH]c3ccc(F)cc23)c2occc2c1 |
| – | 4.4 nM | 7.37 | – | Fc1cc2c(c(OCCNCCc3c[nH]c4ccccc34)c1)OCCC2 |
| – | 27.7 nM | 7.55 | – | Fc1ccc2[nH]cc(CCCNCCOc3cccc4ccoc34)c2c1 |
| – | 9.6 nM | 8.20 | – | Fc1ccc2[nH]cc(CCCNCCOc3cccc4c3OCCO4)c2c1 |
| – | – | 6.06 | – | c1ccc2c(CCCCNCCOc3cccc4[nH]ccc34)c[nH]c2c1 |
| – | 100 nM | 6.60 | 85% | Fc1cc2c(c(OCCNCCc3c[nH]c4ccc(F)cc34)c1)OCC2 |
| – | 100 nM | 6.81 | 89% | c1ccc2c(CCCNCCOc3cccc4[nH]ccc34)c[nH]c2c1 |
| – | 7.4 nM | – | – | c1cnc2c(OCCNCCCc3c[nH]c4ccccc34)cccc2c1 |
| 8.92 | 52 nM | 7.70 | – | Fc1ccc2[nH]cc(CCCNCCOc3cccc4nccnc34)c2c1 |
| – | 100 nM | 8.15 | 79% | Fc1cc2c(c(OCCNCCCc3c[nH]c4ccc(F)cc34)c1)OCCC2 |
| 8.96 | 122 nM | 7.14 | – | Fc1ccc2[nH]cc(CCCNCCOc3cccc4ncccc34)c2c1 |
| – | 100 nM | – | 93% | Fc1ccc2[nH]cc(CCCNCCOc3cccc4[nH]cnc34)c2c1 |
| 7.63 | 4.8 nM | – | – | COc1ccc(F)cc1OCCNCCc1c[nH]c2ccc(F)cc12 |
| 7.37 | 3.3 nM | 6.60 | – | COc1ccc(F)cc1OCCNCCc1c[nH]c2ccccc12 |
| 6.91 | 204 nM | 5.66 | – | c1ccc2c(OCCNCCCc3c[nH]c4ccccc34)cccc2c1 |
| – | 2.5 nM | 7.69 | – | COc1ccc(F)cc1OCCNCCCc1c[nH]c2ccc(F)cc12 |
| – | 100 nM | – | 99% | COc1ccccc1OCCNCCCCc1c[nH]c2ccccc12 |
| 8.93 | 9.2 nM | 7.21 | – | Fc1cc2c(c(OCCNCCCc3c[nH]c4ccc(F)cc34)c1)OCC2 |
| – | 4.6 nM | 8.35 | – | Fc1ccc2[nH]cc(CCCNCCOc3cc(Cl)cc4[nH]cnc34)c2c1 |
| – | – | 6.52 | – | Fc1ccc2[nH]cc(CCCNCCOc3cccc4c3CCCC4)c2c1 |
| – | 11.9 nM | 7.06 | – | Fc1cc2c(c(OCCNCCc3c[nH]c4ccc(F)cc34)c1)OCCC2 |
| 7.87 | 100 nM | 7.07 | 80% | Fc1ccc2[nH]cc(CCNCCOc3cccc4c3OCCO4)c2c1 |
| – | – | 7.70 | 95% | COc1ccccc1OCCNCCCc1c[nH]c2ccc(F)cc12 |
| 6.92 | 3.4 nM | 5.42 | – | Fc1ccc2[nH]cc(CCCNCCOc3ccccc3)c2c1 |
| 9.31 | 13.3 nM | 7.61 | – | Fc1cc(OCCNCCCc2c[nH]c3ccc(F)cc23)c2c(c1)OCCO2 |
| – | 5.6 nM | 7.61 | – | Fc1ccc2[nH]cc(CCCNCCOc3cccc4[nH]ccc34)c2c1 |
| – | 100 nM | 8.01 | 85% | Fc1ccc2[nH]cc(CCCNCCOc3cccc4c3OCC4)c2c1 |
